For the assay, the target named is T1, OppA^WT (OppA, P100), wild type purified from M. hominis (Metamycoplasma hominis, UniProt Q49551).
T1 construct: native lipoprotein, solubilised with N-dodecylmaltoside from membranes and isolated with sepharose-coupled antibody DC10; phosphorylated
Kind of assay: ammonium molybdate ATPase assay, inhibitor preincubated […] min. The following applies: 200 μM inhibitor. In kind it is biochemical.

The source of these data is article PMC3179953, “In Mycoplasma hominis the OppA-mediated cytoadhesion depends on its ATPase activity” (BMC Microbiology, 2011).

T1 sequence (Q49551 entry or part of it): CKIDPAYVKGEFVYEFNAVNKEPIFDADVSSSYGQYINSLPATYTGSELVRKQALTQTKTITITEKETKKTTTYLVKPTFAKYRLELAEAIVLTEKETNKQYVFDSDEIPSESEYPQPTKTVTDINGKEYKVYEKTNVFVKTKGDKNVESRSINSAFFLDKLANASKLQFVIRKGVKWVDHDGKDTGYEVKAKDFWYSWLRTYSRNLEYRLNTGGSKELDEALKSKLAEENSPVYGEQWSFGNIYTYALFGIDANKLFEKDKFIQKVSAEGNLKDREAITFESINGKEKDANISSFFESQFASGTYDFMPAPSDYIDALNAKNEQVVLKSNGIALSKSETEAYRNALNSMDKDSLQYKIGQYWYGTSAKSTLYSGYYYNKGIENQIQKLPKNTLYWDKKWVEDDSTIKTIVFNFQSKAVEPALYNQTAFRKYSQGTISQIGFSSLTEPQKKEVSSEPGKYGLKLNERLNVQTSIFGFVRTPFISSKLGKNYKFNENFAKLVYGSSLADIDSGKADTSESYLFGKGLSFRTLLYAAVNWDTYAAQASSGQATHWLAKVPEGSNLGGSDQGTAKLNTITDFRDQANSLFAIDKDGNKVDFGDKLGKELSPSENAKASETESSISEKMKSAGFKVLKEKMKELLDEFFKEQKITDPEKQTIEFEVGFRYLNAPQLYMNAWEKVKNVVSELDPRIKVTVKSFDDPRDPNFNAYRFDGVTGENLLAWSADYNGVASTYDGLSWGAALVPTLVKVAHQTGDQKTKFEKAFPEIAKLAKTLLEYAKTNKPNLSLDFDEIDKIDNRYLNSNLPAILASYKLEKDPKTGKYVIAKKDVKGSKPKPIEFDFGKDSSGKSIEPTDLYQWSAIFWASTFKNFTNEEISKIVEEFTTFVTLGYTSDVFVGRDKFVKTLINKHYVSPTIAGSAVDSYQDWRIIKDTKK

Consider `O=S(=O)(O)c1cc(N=C=S)ccc1/C=C/c1ccc(N=C=S)cc1S(=O)(=O)O` [DIDS, 4,4'-diisothiocyano-2,2'-stilbene-disulfonic acid], for which the “relative ATPase activity at 200 μM” value was “OppA was neither able to hydrolyze ATP (Figure 3A)”.
